Assays:
Assay type in all cases: in vivo
corn (Zea mays) = test: Test A pre-/postemergence: corn; conditions: for Corn plant response rating: Postemergence; for Plant response rating, Corn: Preemergence
In short: (§1)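 Seeds were sown in loam/sand blend and sprayed preemergence (directed soil spray) and, simultaneously, postemergence at 2–10 cm, one- to two-leaf stage, using compounds in non-phytotoxic solvent with surfactant. After ~10 days in greenhouse, injury was rated visually versus untreated controls, 0 (no effect) to 100 (complete control).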

[1] = tested on: velvetleaf (Abutilon theophrasti); test: Test A pre-/postemergence: velvetleaf; conditions: for Velvetleaf plant response rating: Postemergence; for Plant response rating, Velvetleaf: Preemergence
In short: as §1

[2] = tested on: ducksalad (Heteranthera limosa); test: Test B flooded paddy: ducksalad; conditions: Flood; 250 g ai/ha; applied to paddy water at 2-leaf stage; visually evaluated after 13 to 15 days
Method: (§2) Seeds selected from rice (Oryza sativa), sedge, umbrella (small-flower umbrella sedge Cyperus difformis), ducksalad (Heteranthera limosa), and barnyardgrass (Echinochloa crus-galli) were grown to the 2-leaf stage for testing. At time of treatment, test pots were flooded to 3 cm above the soil surface, treated by application of test compounds directly to the paddy water, and then maintained at that water depth for the duration of the test.
(§3) Treated plants and controls were maintained in a greenhouse for 13 to 15 days, after which time all species were compared to controls and visually evaluated. Plant response ratings, summarized in Table B, are based on a scale of 0 to 100 where 0 is no effect and 100 is complete control. A dash (-) response means no test result.

[3] = tested on: barnyardgrass (Echinochloa crus-galli); test: Test B flooded paddy: barnyardgrass; conditions: Flood; 250 g ai/ha; applied to paddy water at 2-leaf stage; visually evaluated after 13 to 15 days
In short: (§4)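 Flooded-pot test: compound dosed into 3 cm of standing water above soil when plants had two leaves. Visual control ratings (0–100) versus untreated plants after 13–15 d.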

[4] = tested on: crabgrass, large (large crabgrass, Digitaria sanguinalis); test: Test A pre-/postemergence: crabgrass, large; conditions: for Crabgrass, Large plant response rating: Postemergence; for Plant response rating, Crabgrass, Large: Preemergence
In short: as §1

[5] = tested on: foxtail, giant (giant foxtail, Setaria faberii); test: Test A pre-/postemergence: foxtail, giant; conditions: for Foxtail, Giant plant response rating: Postemergence; for Plant response rating, Foxtail, Giant: Preemergence
In short: as §1

[6] = tested on: wheat (Triticum aestivum); test: Test A pre-/postemergence: wheat; conditions: for Wheat plant response rating: Postemergence; for Plant response rating, Wheat: Preemergence
In short: as §1

rice (Oryza sativa) = test: Test B flooded paddy: rice; conditions: Flood; 250 g ai/ha; applied to paddy water at 2-leaf stage; visually evaluated after 13 to 15 days
Method: as §2, §3

[7] = tested on: sedge, umbrella (small-flower umbrella sedge Cyperus difformis); test: Test B flooded paddy: sedge, umbrella; conditions: Flood; 250 g ai/ha; applied to paddy water at 2-leaf stage; visually evaluated after 13 to 15 days
In short: as §4

[8] = tested on: morningglory (Ipomoea spp.); test: Test A pre-/postemergence: morningglory; conditions: for Morningglory plant response rating: Postemergence; for Plant response rating, Morningglory: Preemergence
In short: as §1

[9] = tested on: barnyardgrass (Echinochloa crus-galli); test: Test A pre-/postemergence: barnyardgrass; conditions: for Barnyardgrass plant response rating: Postemergence; for Plant response rating, Barnyardgrass: Preemergence
In short: as §1

[10] = tested on: pigweed (Amaranthus retroflexus); test: Test A pre-/postemergence: pigweed; conditions: for Pigweed plant response rating: Postemergence; for Plant response rating, Pigweed: Preemergence
In short: as §1

[11] = 125 g ai/ha, 0 to 100 scale, 0 is no effect, 100 is complete control
[12] = 500 g ai/ha, visual rating on 0 to 100 scale (0 no effect, 100 complete control), approximately ten days
[13] = 125 g ai/ha, 0 to 100 scale (0 no effect, 100 complete control)
[14] = 500 g ai/ha, 0 to 100 scale, 0 is no effect, 100 is complete control
[15] = 31 g ai/ha, visual rating on 0 to 100 scale (0 no effect, 100 complete control), approximately ten days
[16] = 31 g ai/ha, 0 to 100 scale, 0 is no effect, 100 is complete control

SMILES	Corn plant response rating (corn (Zea mays); [11])	Plant response rating, Corn (corn (Zea mays); [13])	Velvetleaf plant response rating [1, 11]	Plant response rating, Velvetleaf [1, 13]	Plant response rating, Ducksalad (0 to 100 scale, 0 is no effect, 100 is complete control) [2]	Plant response rating, Barnyardgrass (0 to 100 scale, 0 is no effect, 100 is complete control) [3]	Crabgrass, Large plant response rating [4, 11]	Plant response rating, Crabgrass, Large [4, 13]	Foxtail, Giant plant response rating [5, 11]	Plant response rating, Foxtail, Giant [5, 13]	Wheat plant response rating [6, 11]	Plant response rating, Wheat [6, 13]	Plant response rating, Rice (0 to 100 scale, 0 is no effect, 100 is complete control) (rice (Oryza sativa))	Plant response rating, Sedge, Umbrella (0 to 100 scale, 0 is no effect, 100 is complete control) [7]	Morningglory plant response rating [8, 11]	Plant response rating, Morningglory [8, 13]	Barnyardgrass plant response rating [9, 11]	Plant response rating, Barnyardgrass [9, 13]	Pigweed plant response rating [10, 11]	Plant response rating, Pigweed [10, 13]	also measured
CSc1ccccc1-n1nc(C)c(C(=O)c2cccc(C(F)(F)F)c2)n1 [Compound 6]	0	0	0	0	0	0	0	0	0	0	0	0	0	0	0	0	0	0	0	0	Corn plant response rating (corn (Zea mays); [12]): 0; Plant response rating, Corn (corn (Zea mays); [14]): 0; Velvetleaf plant response rating [1, 12]: 0; Plant response rating, Velvetleaf [1, 14]: 0; Crabgrass, Large plant response rating [4, 12]: 20; Plant response rating, Crabgrass, Large [4, 14]: 0; Foxtail, Giant plant response rating [5, 12]: 10; Plant response rating, Foxtail, Giant [5, 14]: 0; Wheat plant response rating [6, 12]: 0; Plant response rating, Wheat [6, 14]: 0; Morningglory plant response rating [8, 12]: 0; Plant response rating, Morningglory [8, 14]: 0; Barnyardgrass plant response rating [9, 12]: 0; Plant response rating, Barnyardgrass [9, 14]: 0; Pigweed plant response rating [10, 12]: 30; Plant response rating, Pigweed [10, 14]: 0
COc1nn(-c2ccc(F)cc2)nc1Oc1ccnc(C(F)(F)F)c1 [Compound 34]	10	0	10	0	75	65	20	50	20	30	0	0	35	90	30	0	10	0	80	10	Corn plant response rating (corn (Zea mays); [15]): 10; Plant response rating, Corn (corn (Zea mays); [16]): 0; Velvetleaf plant response rating [1, 15]: 0; Plant response rating, Velvetleaf [1, 16]: 0; Crabgrass, Large plant response rating [4, 15]: 10; Plant response rating, Crabgrass, Large [4, 16]: 0; Foxtail, Giant plant response rating [5, 15]: 10; Plant response rating, Foxtail, Giant [5, 16]: 0; Wheat plant response rating [6, 15]: 0; Plant response rating, Wheat [6, 16]: 0; Morningglory plant response rating [8, 15]: 20; Plant response rating, Morningglory [8, 16]: 0; Barnyardgrass plant response rating [9, 15]: 0; Plant response rating, Barnyardgrass [9, 16]: 0; Pigweed plant response rating [10, 15]: 20; Plant response rating, Pigweed [10, 16]: 0
